The values below come from PMC7558026, “Exploring and applying the substrate promiscuity of a C-glycosyltransferase in the chemo-enzymatic synthesis of bioactive C-glycosides” (Nature Communications, 2020).

Each structure is given as a SMILES string. Changes are numbered by the printed parent chain. “And” between values parts separate entries of the source, which are not always exact repeats. Equal values may be shown once.

Common to all, as to type: biochemical, Aloe barbadensis
The target in assay [1] is AbCGT (Aloe vera, UniProt A0A7G9P699). Description: Glycosyltransferase activity assay, purified AbCGT (wild type) with aglycon acceptors and UDP-Glc. Particulars: for conversion rates, O,N,S-glycosylation / conversion rates, di-C-glycosylation / conversion rates, mono-C-glycosylation: aglycon acceptor with UDP-Glc, pH 7.4, 30 °C, up to 12 h, Reaction-1 to -3. The procedure: Due to the instability of some acceptors in the buffer of pH 11.0, the reactions were performed under the physiological conditions (pH 7.4, 30 °C) to compare the catalytic activities of AbGT27 with different substrates under the same conditions. The reactions were performed at 30 °C for up to 12 h and terminated by the addition of 200 μL of ice-cold methanol. Subsequently, samples were centrifuged at 15,000 × g for 30 min to collect the supernatant, and aliquots were analyzed by HPLC-UV/ESIMS. […] The gradient programs were used for the analysis of the reactions (Supplementary Table 6). The conversion rates of the enzyme reactions were calculated from peak areas of glycosylated products and substrates as analyzed by HPLC. To facilitate inferential statistical analysis, three parallel assays were routinely performed; the means ± SD from triplicate analyses are reported here.

Assay [2] addresses T1, AbCGT V183D (Aloe vera, UniProt A0A7G9P699, V183D).
T1 sequence (A0A7G9P699 1-470 V183D): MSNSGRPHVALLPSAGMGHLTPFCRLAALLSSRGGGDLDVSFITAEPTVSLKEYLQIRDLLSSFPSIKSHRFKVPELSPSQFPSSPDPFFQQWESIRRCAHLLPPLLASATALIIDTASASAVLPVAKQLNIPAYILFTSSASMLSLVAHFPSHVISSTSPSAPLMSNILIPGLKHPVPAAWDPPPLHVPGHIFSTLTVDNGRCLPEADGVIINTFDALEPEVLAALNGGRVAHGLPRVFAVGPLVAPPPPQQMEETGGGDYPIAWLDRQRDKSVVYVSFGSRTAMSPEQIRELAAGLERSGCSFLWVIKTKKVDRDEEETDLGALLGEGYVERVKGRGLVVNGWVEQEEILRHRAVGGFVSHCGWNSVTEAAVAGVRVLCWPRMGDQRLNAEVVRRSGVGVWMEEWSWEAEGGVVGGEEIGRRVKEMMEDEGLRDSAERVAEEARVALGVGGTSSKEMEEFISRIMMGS
As to the kind of experiment: Glycosyltransferase activity of AbCGT variant V183D. How it is done:
(§1) The reaction mixture contained 0.5 mM sugar donors (1.0 mM for di-glycosylation), 0.25 mM aglycons, 50 mM Tris-HCl (pH 7.4), and 50‒100 μg of purified AbCGT in a final volume of 100 μL. Due to the instability of some acceptors in the buffer of pH 11.0, the reactions were performed under the physiological conditions (pH 7.4, 30 °C) to compare the catalytic activities of AbGT27 with different substrates under the same conditions. The reactions were performed at 30 °C for up to 12 h and terminated by the addition of 200 μL of ice-cold methanol. Subsequently, samples were centrifuged at 15,000 × g for 30 min to collect the supernatant, and aliquots were analyzed by HPLC-UV/ESIMS. HPLC analysis was performed on a Shiseido CAPCELL PAK C18 MG III column (250 mm × 4.6 mm I.D., 5 μm, Shiseido Co., Ltd., Japan) at a flow rate of 1 mL min^‒1. The mobile phase was a gradient elution of solvents A (0.1% formic acid aqueous solution) and B (methanol). The gradient programs were used for the analysis of the reactions (Supplementary Table 6). The conversion rates of the enzyme reactions were calculated from peak areas of glycosylated products and substrates as analyzed by HPLC. To facilitate inferential statistical analysis, three parallel assays were routinely performed; the means ± SD from triplicate analyses are reported here.
(§2) Site-saturation mutagenesis of AbCGT at residue 183 was performed by PCR using pET28a-AbCGT as a template and the corresponding degenerate primers, which are listed in Supplementary Table 5. PCR products were purified and transformed into Trans1-T1 (DE3) E. coli. The sequences of pET28a-AbCGT mutants were confirmed by sequencing, and transformed into Transetta (DE3) E. coli for heterologous expression following protein purification.

The target in assay [3] is T2, AbCGT V183E (Aloe vera, UniProt A0A7G9P699, V183E).
T2 sequence (A0A7G9P699 1-470 V183E): T1 sequence (A0A7G9P699 1-470 V183D) with D183E
Description: Glycosyltransferase activity of AbCGT variant V183E. The procedure:
as §1, §2

Sequence of AbCGT (A0A7G9P699 entry or part of it): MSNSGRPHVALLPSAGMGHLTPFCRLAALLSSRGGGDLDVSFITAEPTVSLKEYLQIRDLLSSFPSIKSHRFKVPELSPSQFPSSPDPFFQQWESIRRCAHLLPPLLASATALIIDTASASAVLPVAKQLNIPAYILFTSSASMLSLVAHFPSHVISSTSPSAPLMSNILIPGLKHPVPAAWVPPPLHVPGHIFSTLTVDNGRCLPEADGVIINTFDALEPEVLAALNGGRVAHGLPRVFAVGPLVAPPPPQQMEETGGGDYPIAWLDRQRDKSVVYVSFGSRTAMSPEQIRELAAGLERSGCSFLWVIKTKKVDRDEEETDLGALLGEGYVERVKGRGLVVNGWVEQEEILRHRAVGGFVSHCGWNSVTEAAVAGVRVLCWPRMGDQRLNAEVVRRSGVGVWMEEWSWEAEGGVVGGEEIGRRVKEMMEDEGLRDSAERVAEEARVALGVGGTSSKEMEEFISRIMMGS

For `CC(=O)c1ccccc1O` [Compound 1], in assay [1], the “conversion rates, O,N,S-glycosylation” value was 30.2% and 31% and 32.1%; the “conversion rates, di-C-glycosylation” value was found to be 0%; the “conversion rates, mono-C-glycosylation” value stood at 0%. In assay [1] (reaction-1), the “WT/yield of C-glycoside(%)” value was determined as 0% and the “WT/yield of O-glycoside(%)” value is 32.8%. For the same molecule, in assay [1] (reaction-2), the “WT/yield of C-glycoside(%)” value was 0% and the “WT/yield of O-glycoside(%)” value was 33.5%. In assay [1] (reaction-3), the “WT/yield of C-glycoside(%)” value turned out to be 0% and the “WT/yield of O-glycoside(%)” value was found to be 28.2%. Besides, in assay [2] (reaction-1), the “V183D/yield of C-glycoside(%)” value is listed as 0% and the “V183D/yield of O-glycoside(%)” value is 0%. Besides, in assay [2] (reaction-2), the “V183D/yield of C-glycoside(%)” value is given as 0% and the “V183D/yield of O-glycoside(%)” value is 0%. Moreover, in assay [2] (reaction-3), the “V183D/yield of C-glycoside(%)” value stood at 0% and the “V183D/yield of O-glycoside(%)” value is listed as 0%.

With `CC(=O)c1cccc(O)c1` [Compound 2], the “conversion rates, O,N,S-glycosylation” value in assay [1] is 71% and 72.2% and 73.1%. Further, the “conversion rates, di-C-glycosylation” value in assay [1] was found to be 0%. In addition, the “conversion rates, mono-C-glycosylation” value in assay [1] turned out to be 0%. The “WT/yield of C-glycoside(%)” value in assay [1] (reaction-1), in assay [1] (reaction-2) and in assay [1] (reaction-3) was 0% each time. Further, the “WT/yield of O-glycoside(%)” value in assay [1] (reaction-1) amounted to 70.1%; in assay [1] (reaction-2), 73.8%; in assay [1] (reaction-3), 73%. In addition, the “V183E/yield of C-glycoside(%)” value in assay [3] (reaction-1), in assay [3] (reaction-2) and in assay [3] (reaction-3) was 0% throughout. The “V183E/yield of O-glycoside(%)” value in assay [3] (reaction-1), in assay [3] (reaction-2) and in assay [3] (reaction-3) was 0% each time. In addition, the “V183D/yield of C-glycoside(%)” value in assay [2] (reaction-1), in assay [2] (reaction-2) and in assay [2] (reaction-3) was 0% in each case. Further, the “V183D/yield of O-glycoside(%)” value in assay [2] (reaction-1), in assay [2] (reaction-2) and in assay [2] (reaction-3) was 0% in each case.

On to `CC(=O)c1ccc(O)cc1` [Compound 3], for which, in assay [1], the “conversion rates, O,N,S-glycosylation” value is 70.3% and 72% and 73%. In addition, the “conversion rates, di-C-glycosylation” value in assay [1] was 0%. The “conversion rates, mono-C-glycosylation” value in assay [1] came out at 0%. Also, the “WT/yield of C-glycoside(%)” value in assay [1] (reaction-1), in assay [1] (reaction-2) and in assay [1] (reaction-3) was 0% in each case. Besides, the entries for the “WT/yield of O-glycoside(%)” value in assay [1] (reaction-1), in assay [1] (reaction-2) and in assay [1] (reaction-3) were 70.4%, 71.9% and 71%, respectively. Further, the “V183E/yield of C-glycoside(%)” value in assay [3] (reaction-1), in assay [3] (reaction-2) and in assay [3] (reaction-3) was 0% in each case. For the same molecule, the “V183E/yield of O-glycoside(%)” value in assay [3] (reaction-1), in assay [3] (reaction-2) and in assay [3] (reaction-3) was 0% throughout. Moreover, the “V183D/yield of C-glycoside(%)” value in assay [2] (reaction-1), in assay [2] (reaction-2) and in assay [2] (reaction-3) was 0% throughout. The “V183D/yield of O-glycoside(%)” value in assay [2] (reaction-1), in assay [2] (reaction-2) and in assay [2] (reaction-3) was 0% each time.

Regarding `CC(=O)c1cc(O)cc(O)c1` [Compound 4, 3,5-dihydroxyacetophenone], in assay [1], the “conversion rates, O,N,S-glycosylation” value is 32.6% and 34.9% and 33.8%. Besides, the “conversion rates, di-C-glycosylation” value in assay [1] stood at 0%. In assay [1], the “conversion rates, mono-C-glycosylation” value worked out at 0%. Besides, the entries for the “WT/yield of C-glycoside(%)” value in assay [1] (reaction-1), in assay [1] (reaction-2) and in assay [1] (reaction-3) were 1%, 0.8% and 1.3%, respectively. In addition, the “WT/yield of O-glycoside(%)” value in assay [1] (reaction-1) came to 38.8%; in assay [1] (reaction-2), 32.4%; in assay [1] (reaction-3) it was 32.9%. The “V183E/yield of C-glycoside(%)” value in assay [3] (reaction-1), in assay [3] (reaction-2) and in assay [3] (reaction-3) was 0% throughout. Besides, the “V183E/yield of O-glycoside(%)” value in assay [3] (reaction-1), in assay [3] (reaction-2) and in assay [3] (reaction-3) was 0% throughout. Further, the “V183D/yield of C-glycoside(%)” value in assay [2] (reaction-1), in assay [2] (reaction-2) and in assay [2] (reaction-3) was 0% throughout. For the same molecule, the “V183D/yield of O-glycoside(%)” value in assay [2] (reaction-1), in assay [2] (reaction-2) and in assay [2] (reaction-3) was 0% throughout.

Turning to `CC(=O)c1c(O)cccc1O` [Compound 5], in assay [1], the “conversion rates, O,N,S-glycosylation” value is 72% and 70.6% and 73%. The “conversion rates, di-C-glycosylation” value in assay [1] was determined as 0%. In assay [1], the “conversion rates, mono-C-glycosylation” value was 16.5% and 14.3% and 13.1%. The results for the “WT/yield of C-glycoside(%)” value in assay [1] (reaction-1), in assay [1] (reaction-2) and in assay [1] (reaction-3) were 15.1%, 14.2% and 14.7%, respectively. For the same molecule, the “WT/yield of O-glycoside(%)” value in assay [1] (reaction-1) is reported as 73.6%; in assay [1] (reaction-2) it was 71%; in assay [1] (reaction-3), 72.9%. In addition, the “V183E/yield of C-glycoside(%)” value in assay [3] (reaction-1), in assay [3] (reaction-2) and in assay [3] (reaction-3) was 0% each time. Besides, the “V183E/yield of O-glycoside(%)” value in assay [3] (reaction-1), in assay [3] (reaction-2) and in assay [3] (reaction-3) was 0% throughout. For the same molecule, the “V183D/yield of C-glycoside(%)” value in assay [2] (reaction-1) was determined as 8.2%; in assay [2] (reaction-2) it was 7.5%; in assay [2] (reaction-3), 7.9%. In addition, the “V183D/yield of O-glycoside(%)” value in assay [2] (reaction-1), in assay [2] (reaction-2) and in assay [2] (reaction-3) was 0% in each case.

As for `CC(=O)c1ccc(O)cc1O` [Compound 6, 2,4-dihydroxyacetophenone], the “conversion rates, O,N,S-glycosylation” value in assay [1] is 43.8% and 46.5% and 44.5%. For the same molecule, in assay [1], the “conversion rates, di-C-glycosylation” value is given as 0%. In addition, the “conversion rates, mono-C-glycosylation” value in assay [1] was 27.1% and 26.5% and 27.4%. Moreover, the entries for the “WT/yield of C-glycoside(%)” value in assay [1] (reaction-1), in assay [1] (reaction-2) and in assay [1] (reaction-3) were 29.2%, 25.9% and 26%, respectively. The “WT/yield of O-glycoside(%)” value is 43.5% in assay [1] (reaction-1), 45.7% in assay [1] (reaction-2) and 47% in assay [1] (reaction-3). The “V183E/yield of O-glycoside(%)” value in assay [3] (reaction-1), in assay [3] (reaction-2) and in assay [3] (reaction-3) was 0% in each case. Further, the “V183E/yield of C-glycoside(%)” value came out at 5.5% in assay [3] (reaction-2) and 6.8% in assay [3] (reaction-3). Also, the “V183D/yield of C-glycoside(%)” value in assay [2] (reaction-1) came to 13.9%; in assay [2] (reaction-2), 12.3%; in assay [2] (reaction-3), 13.1%. Besides, the entries for the “V183D/yield of O-glycoside(%)” value in assay [2] (reaction-1), in assay [2] (reaction-2) and in assay [2] (reaction-3) were 1%, 1.5% and 1.4%, respectively.
